Test results from patent publication US9073879B2, “Oxazole derivatives useful as modulators of FAAH” (MERCK SHARP & DOHME CORP., priority 2010, dated 2015).

Tests used:
human FAAH [1] = biological target: T1, human FAAH (Homo sapiens, UniProt O00519); assay: FAAH cell lysate assay (human lysate, FAAH_CHO, AAMCA substrate); assay type: biochemical; details: lysate of CHO cells expressing human FAAH; read-out: human lysate_IC50
T1 construct: The full length FAAH was subcloned into the mammalian expression vector, pcDEF.neo, using XbaI and EcoRI restriction sites; expressed in transfected cells
T1 sequence (O00519 1-579): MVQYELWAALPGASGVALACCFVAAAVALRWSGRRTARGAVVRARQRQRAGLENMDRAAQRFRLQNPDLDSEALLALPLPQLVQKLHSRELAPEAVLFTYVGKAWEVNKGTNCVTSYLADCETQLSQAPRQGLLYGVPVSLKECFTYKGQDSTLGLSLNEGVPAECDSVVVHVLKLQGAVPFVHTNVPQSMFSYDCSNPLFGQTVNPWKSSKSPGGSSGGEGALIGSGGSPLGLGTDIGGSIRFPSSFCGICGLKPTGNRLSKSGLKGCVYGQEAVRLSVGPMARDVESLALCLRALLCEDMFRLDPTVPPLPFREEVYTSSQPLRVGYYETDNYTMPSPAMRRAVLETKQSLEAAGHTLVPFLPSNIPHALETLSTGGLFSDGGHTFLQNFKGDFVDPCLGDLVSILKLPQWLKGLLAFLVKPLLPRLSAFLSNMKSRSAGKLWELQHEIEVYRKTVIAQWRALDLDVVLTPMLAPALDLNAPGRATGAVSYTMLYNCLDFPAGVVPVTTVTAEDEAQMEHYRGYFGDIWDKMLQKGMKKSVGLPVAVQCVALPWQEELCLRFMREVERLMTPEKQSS
Source text: (§1) To assist in assay development stable cell lines for human, murine and rat full length FAAH were developed. Human FAAH cDNA (Accession No: NM_001441.1) was purchased from Origene (Rockville, Md.). The full length FAAH was subcloned into the mammalian expression vector, pcDEF.neo, using XbaI and EcoRI restriction sites and used for stable cell line generation.
CHO cells expressing FAAH were used to prepare either crude cell lysate or microsome fractions. To harvest cells, tissue culture media was decanted, the monolayer washed three times with Ca^++Mg^++ free PBS and cells recovered after 15 mm in enzyme free dissociation media (Millipore Corp, Billerica, Mass.). Cells were collected by centrifuging at 2000 rpm for 15 min. and the cell pellet re-suspended with 50 mM HEPES (pH 7.4) containing 1 mM EDTA and the protease inhibitors aprotinin (1 mg/ml) and leupeptin (100 μM). The suspension was sonicated at 4° C. and the cell lysate recovered after centrifuging at 12,000×g (14,600 rpm, SS34 rotor) for 20 min at 4° C. to form a crude pellet of cell debris, nuclei, peroxisomes, lysosomes, and mitochondria; the supernatant or cell lysate was used for FAAH enzyme assay. In some cases, microsomes fractions enriched in FAAH were prepared by centrifuging the cell lysate further at 27,000 rpm (100,000×g) in SW28 rotor for 50 minutes at 4° C. The pellet containing FAAH-enriched microsomes was re-suspend in 50 mM HEPES, (pH 7.4) 1 mM EDTA, and any remaining DNA sheared by passage of material through a 23 gauge needle and aliquots of enzyme were store at −80° C. prior to use.
(American Radiolabeled Chemicals; 1 mCi/ml) with FAAH (Life Sciences (1995), 56, 1999-2005 and Journal of Pharmacology and Experimented Therapeutics (1997), 283, 729-734), Analytical. Biochemistry (2003), 318:270-5. In addition, routine assays were performed monitoring hydrolysis of araehidonyl-7-amino-4-methylcoumarin amide (AAMCA) by following increase in fluorescence upon release of 7-amino 4-methyl coumarin (λEX=355 nm, (λEM=460 nm). Analytical. Biochemistry (2005). 343:143-51
(§2) Assays are performed on either cell lysate or microsome fractions prepared as described or in whole cell format employing either the fluorescent substrate AAMCA (Cayman chemical, Ann Arbor, Mich.) or ^3H-anandamide ([ETHANOLAMINE-1-3H] American Radiolabeled Chemicals; 1 mCi/ml). The cell lysate or microsome assay is performed in black PerkinElmer OptiPlates-384F by adding FAAH_CHO (whole cell (shown as human Whole cell or Human WC), cell lysate (shown as human lysate of human LY) or microsome) in assay buffer (50 mM Phosphate, pH 8.0, 1 mM EDTA, 200 mM KCl, 0.2% glycerol, 0.1% fatty acid free BSA) to each well, followed by either DMSO or compound and allowed to incubate at 22-25° C. for fifteen minutes. AAMCA substrate was used to achieve a final concentration of 1 μM and reaction allowed to proceed at room temperature for 1-3 hours. Fluorescent release as a measure of FAAH activity was monitored by reading the plate in an Envision plate Reader (Ex: 360/40 nM; Em: 460/40 nM). Whole cell assay is conducted with cells harvested after rinsing tissue culture flasks three times with Ca^++Mg^++ free PBS, incubating for 10 min in Enzyme free dissociation media and centrifuging for 5 minutes at 1,000 rpm in table top centrifuge. Cells are resuspended in assay buffer at desired cell number in (4×10^4 cells/assay in 96-well format; 1×10^4 cells/assay in 384-well format) and assayed as described.

human FAAH [2] = biological target: T1, human FAAH; assay: FAAH whole cell assay (human Whole cell, FAAH_CHO, AAMCA substrate); assay type: cell-based; details: CHO cells expressing human FAAH, whole cell format; read-out: human cell_IC50
Source text: as §1
Murine (accession number NM_010173) and Rat FAAH (accession number NM_024132) was amplified by reverse transcriptase polymerase chain reaction (RT-PCR) from brain cDNA (BD Biosciences, San Jose, Calif.) using primers 1 and 2 or primers 1 and 3 respectively (see Table). The resulting PCR product was ligated into pCR4 TOPO and DNA sequence confirmed. The full length murine FAAH was subcloned into the mammalian expression vector, pcDEFneo using either EcoRI (murine) or KpnI and EcoRI (rat) restriction sites. Chinese hamster ovary cells (CHO) were transfected following manufacturers protocol (AMAXA). Forty eight hours post transfection, cells were trypsinized and transferred to 96 well plates in Iscove's DMEM media supplemented with 2 mM Glutamine, 10% fetal calf serum, 1 mg/ml geneticin and HT Supplement (0.1 mM sodium hypoxanthine, 0.016 mM thymidine) in order to isolate single clones. Following selection in geneticin, individual clones were selected and FAAH activity was assessed using a whole cell fluorescent anandamide assay, modified from Ramarao et al (2005). Following removal of tissue culture media cells were dislodged following addition of Cellstripper (Mediatech, Inc. Manassas, Va.) and transferred to 96 well black clear bottom assay plate, centrifuged at 1,000 rpm for 3 mins and media removed and replaced with assay buffer (50 mM Tris pH8.0, 1 mM EDTA, 0.1% fatty acid free BSA). The reaction was initiated by addition of fluorescent substrate, AMC Arachidonoyl Amide (Cayman Chemical, Ann Arbor, Mich.) to 1 μM and reaction allowed to proceed for 2 hours at room temperature. Release of fluorescence was monitored in a CytoFluor Multiplate Reader. Cells expressing the highest amount of FAAH activity were selected for study with FAAH inhibitors.
as §2

| IC50 (human FAAH [1]) | IC50 (human FAAH [2]) | SMILES |
| --- | --- | --- |
| 8 nM | 39 nM | COC(=O)c1ccc(OC(C)c2nc(-c3ccc(F)cc3)oc2Sc2ccc(Cl)cn2)cc1 (centres unmarked) [Example B7.1, methyl 4-(1-{5-[(5-chloropyridin-2-yl)sulfanyl]-2-(4-fluorophenyl)-1,3-oxazol-4-yl}ethoxy)benzoate] |
| 21 nM | 80 nM | CNC(=O)c1ccc(OC(C)c2nc(-c3ccc(F)cc3)oc2Sc2ccc(Cl)cn2)cc1 (centres unmarked) [Example B7.2, 4-(1-{5-[(5-chloropyridin-2-yl)sulfanyl]-2-(4-fluorophenyl)-1,3-oxazol-4-yl}ethoxy)-N-methylbenzamide] |
| 187 nM | 1310 nM | COC(=O)c1ccc(OCc2nc(C3CC3)oc2Sc2ccc(Cl)cn2)cc1 [Example D4.1, methyl 4-({5-[(5-chloropyridin-2-yl)sulfanyl]-2-cyclopropyl-1,3-oxazol-4-yl}methoxy)benzoate] |
| 317 nM | 979 nM | Clc1ccc(Sc2oc(C3CC3)nc2COc2ccc3[nH]ncc3c2)nc1 [Example D4.2, 5-({5-[(5-chloropyridin-2-yl)sulfanyl]-2-cyclopropyl-1,3-oxazol-4-yl}methoxy)-1H-indazole] |
